Experimental data published in publication PMC10791743, “Selective CK1α degraders exert antiproliferative activity against a broad range of human cancer cell lines” (Nature Communications, 2024).
Read-outs that look alike come from different tables or passages of the source.

Tests used:
CK1α G40N = target: T1, CK1α G40N (Homo sapiens, UniProt P48729, G40N); assay: Immunoblot of transduced MOLM-13 cells (FLAG-CK1α WT / G40N); format: cell-based; details: 1 μM, 4 h
T1 construct: host or cells: MOLM-13, lentiviral transduction, puromycin selected
T1 sequence (Q96SW2 whole entry partner): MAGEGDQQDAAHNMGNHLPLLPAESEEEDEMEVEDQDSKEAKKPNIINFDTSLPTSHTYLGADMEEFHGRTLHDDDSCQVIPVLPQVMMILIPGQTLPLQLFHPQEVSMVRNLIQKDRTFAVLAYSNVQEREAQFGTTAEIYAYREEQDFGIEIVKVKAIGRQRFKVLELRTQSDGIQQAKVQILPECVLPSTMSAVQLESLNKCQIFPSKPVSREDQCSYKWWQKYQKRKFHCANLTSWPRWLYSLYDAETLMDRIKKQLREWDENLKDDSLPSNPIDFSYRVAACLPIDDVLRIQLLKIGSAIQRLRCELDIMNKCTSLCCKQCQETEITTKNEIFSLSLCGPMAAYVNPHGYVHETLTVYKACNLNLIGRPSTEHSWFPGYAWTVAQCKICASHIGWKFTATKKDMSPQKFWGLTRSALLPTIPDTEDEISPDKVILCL
T1 sequence (Q16531 whole entry partner): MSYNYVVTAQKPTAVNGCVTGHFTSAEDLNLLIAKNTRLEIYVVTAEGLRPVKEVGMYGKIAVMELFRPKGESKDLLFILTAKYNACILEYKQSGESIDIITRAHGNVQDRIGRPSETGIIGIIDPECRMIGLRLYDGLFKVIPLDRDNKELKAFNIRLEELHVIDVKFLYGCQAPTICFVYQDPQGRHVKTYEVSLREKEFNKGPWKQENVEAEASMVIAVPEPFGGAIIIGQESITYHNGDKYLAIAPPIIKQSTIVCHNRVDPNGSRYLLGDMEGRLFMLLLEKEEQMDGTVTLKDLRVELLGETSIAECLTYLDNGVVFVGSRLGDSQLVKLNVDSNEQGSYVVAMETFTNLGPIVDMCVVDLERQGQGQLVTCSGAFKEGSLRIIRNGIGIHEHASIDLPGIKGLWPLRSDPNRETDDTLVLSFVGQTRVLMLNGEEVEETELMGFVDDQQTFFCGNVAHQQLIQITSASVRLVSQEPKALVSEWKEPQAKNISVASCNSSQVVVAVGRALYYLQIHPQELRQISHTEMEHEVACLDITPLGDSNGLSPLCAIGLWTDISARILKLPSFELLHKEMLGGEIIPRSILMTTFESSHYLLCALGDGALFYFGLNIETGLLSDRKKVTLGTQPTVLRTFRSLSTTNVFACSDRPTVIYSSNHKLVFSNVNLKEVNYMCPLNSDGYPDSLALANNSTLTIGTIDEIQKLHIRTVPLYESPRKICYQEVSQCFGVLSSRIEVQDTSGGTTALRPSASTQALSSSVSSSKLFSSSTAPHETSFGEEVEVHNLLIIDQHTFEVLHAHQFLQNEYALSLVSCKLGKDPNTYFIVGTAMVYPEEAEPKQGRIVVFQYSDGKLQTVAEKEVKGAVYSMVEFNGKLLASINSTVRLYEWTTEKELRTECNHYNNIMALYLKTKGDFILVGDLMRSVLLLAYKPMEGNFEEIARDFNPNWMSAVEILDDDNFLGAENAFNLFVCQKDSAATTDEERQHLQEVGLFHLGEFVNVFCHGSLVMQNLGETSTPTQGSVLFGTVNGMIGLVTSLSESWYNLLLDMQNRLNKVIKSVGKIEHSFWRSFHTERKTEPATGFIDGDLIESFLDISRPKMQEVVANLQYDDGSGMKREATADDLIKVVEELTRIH
T1 sequence (P48729 whole entry G40N): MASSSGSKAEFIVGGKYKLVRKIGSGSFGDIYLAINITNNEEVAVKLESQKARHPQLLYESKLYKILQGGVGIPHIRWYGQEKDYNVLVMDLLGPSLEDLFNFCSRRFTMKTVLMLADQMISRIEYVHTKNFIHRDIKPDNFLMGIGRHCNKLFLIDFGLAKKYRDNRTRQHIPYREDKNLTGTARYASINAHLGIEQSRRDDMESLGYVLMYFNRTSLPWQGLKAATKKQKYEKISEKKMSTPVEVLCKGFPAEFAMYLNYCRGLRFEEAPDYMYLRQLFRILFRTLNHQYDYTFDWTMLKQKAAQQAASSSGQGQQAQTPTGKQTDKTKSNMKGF
Description: To evaluate the contribution of the CK1α degradation in SJ3149-mediated cytotoxicity, we utilized the degradation-resistant mutant CK1α G40N[41]. MOLM-13 cells were transduced with lentivirus to overexpress FLAG-tagged wild type CK1α or the G40N mutant, which removes the essential glycine in the CK1α degron G-loop.
Frozen pellets of ~1 million cells were lysed in 150 µl of SDS lysis buffer (60 mM Tris/HCl pH 7, 10% glycerol, 2% SDS, 5% beta-mercaptoethanol, 0.02% bromophenol blue, 0.5% protease and phosphatase inhibitor cocktail (Sigma Aldrich)). When cells were resuspended, samples were heated for 3 min at 99 °C then put on ice. Samples were then fragmented by sonication for 10 0.5-s pulses (550 Sonic Dismembrator, Fisher Scientific) and heated again at 99 °C for 2 min. 15 μl of each sample was added to the wells of a 4–20% polyacrylamide gel (Bio-Rad). A mixture of 2 μl of Precision Plus Protein Unstained Standards and 2 μl of Precision Plus Protein All Blue Standards (Bio-Rad) was used for the size marker. After electrophoresis, gels were transferred to nitrocellulose membrane using the Bio-Rad Trans-Blot Turbo system on the mixed molecular weight setting. […] Blots were imaged with the Li-Cor Odyssey CLx and analyzed using Image Studio Version 5.2. […]

[1] = Pharmacokinetics in female CD1 mice; format: in vivo, mouse; details: mouse; for half-life: CD1, mouse, plasma
Description: Three mice were housed in each cage. […] Temperature and humidity were recorded by an auto-controlled data logger system. All the animals were provided a laboratory rodent diet (Altromin, Germany). Reverse osmosis water treated with ultraviolet light was provided ad libitum. Total 27 mice (n = 9/group) were divided into three groups as Group 1, Group 2, and Group 3 with a sparse sampling design (3 mice/time points). […] The formulation vehicle for IV was 5% v/v NMP, 5% v/v Solutol HS-15 and 90% v/v Normal saline, and for PO & IP was 10%v/v NMP, 10%v/v Solutol HS-15. 50%v/v PEG-400 and 30%v/v HPβCD (20%w/v) in saline. […] Immediately after blood collection, plasma was harvested by centrifugation at 12,300×g, 10 min at 4 °C and samples were stored at −70 ± 10 °C until bioanalysis. Concentrations of SJ3149 in mouse plasma samples were determined by fit-for-purpose LC–MS/MS method. Non-Compartmental-Analysis tool of Phoenix WinNonlin® (Version 8.3) was used to assess the pharmacokinetic parameters. Peak plasma concentration (Cmax) and time for the peak plasma concentration (Tmax) were the observed values. The area under the concentration–time curve (AUClast) was calculated by the linear trapezoidal rule. The terminal elimination rate constant, ke was determined by regression analysis of the linear terminal portion of the log plasma concentration-time curve. Clearance was estimated as Dose/AUCinf and Vss as CL*MRT.

[2] = female, CD1, plasma, IP 50 mg/kg
[3] = female, CD1, plasma, IV 3 mg/kg
[4] = female, CD1, plasma, PO 50 mg/kg

With `O=C1CCC(N2Cc3cc(Nc4noc5ccccc45)ccc3C2=O)C(=O)N1` (stereo not drawn) [SJ3149] the “Degradation of G40N mutant CK1α protein” value (CK1α G40N) was “resistance of the G40N mutant protein to SJ3149 mediated degradation”, the T1/2 ([1]; PO 50 mg/kg, 50 mg/kg) was 154 min and the half-life ([1]; female, ip, 50 mg/kg, IP 50 mg/kg) was 185 min. It also gave a half-life ([1]; female, iv, 3 mg/kg, IV 3 mg/kg) of 46.2 min, a half-life ([1]; female, po, 50 mg/kg, PO 50 mg/kg) of roughly 180 min and an AUC(0-t) [1, 2] of 17000 ng·h/mL. The Tmax [1, 2] was 15 min, the bioavailability [1, 2] was 74% and the Cmax ([1]; female, CD1, plasma, IP 50 mg/kg, read-out: C0/Cmax) was 6680 ng/mL. It also gave an AUC(0-t) [1, 3] of 1370 ng·h/mL, a clearance [1, 3] of 36.2 mL/min/kg and a Cmax ([1]; female, CD1, plasma, IV 3 mg/kg, read-out: C0/Cmax (C0 back extrapolated)) of 4510 ng/mL. For the same compound, the Vd ([1]; female, CD1, plasma, IV 3 mg/kg, read-out: Vss) was 0.67 L/kg, the AUC(0-t) [1, 4] was 2850 ng·h/mL and the Tmax [1, 4] was 15 min. For the same compound, the bioavailability [1, 4] was 12%, the Cmax ([1]; female, CD1, plasma, PO 50 mg/kg, read-out: C0/Cmax) was 4740 ng/mL and the Cmax ([1]; female, CD1, plasma, PO 50 mg/kg, read-out: C0/Cmax (molar)) was 12.6 µM.
